# Data from US20070141618A1, “GENES EXPRESSED IN BREAST CANCER AS PROGNOSTIC AND THERAPEUTIC TARGETS” (priority 2001, published 2007).
# Legend:
# TFF1 = details: reportedly; Prud'homme et al. 1985; cited from earlier work
# [1] = test system: primary invasive breast cancer; assay: Clinical tumor response (WHO criteria) in randomized Phase III neoadjuvant trial of letrozole versus tamoxifen; assay type: in vivo, human (postmenopausal women); details: clinical outcome of patients with profiled biopsies; clinical assessment by palpation at 4 months
# Description: Definitions of Objective Response Used in the Letrozole (FEMARA™) vs. Tamoxifen Comparison Study
# 1. Complete Response (CR): The disappearance of all known disease, determined by 2 observations not less than 4 weeks apart.
# 2. Partial Response (PR): A 50% or more decrease in total tumor size of the lesions which have been measured to determine the effect of therapy by 2 observations not less than 4 weeks apart. In addition there can be no appearance of new lesions or progression of any lesion.
# 4. Progressive Disease (PD): A 25% or more increase in the size of one or more measurable lesions, or the appearance of new lesions.
# Clinical Response Assessment
# The primary efficacy variable was tumor response, assessed by clinical examination using World Health Organization (WHO) criteria (see, WHO Handbook for Reporting Results of Cancer Treatment). It was defined as the percentage of patients in each treatment group with a CR or PR as determined clinically in the breast by palpation at 4 months. Possible responses were CR, PR, NC, PD or not assessable/not evaluable (NA/NE). Palpable ipsilateral axillary lymph nodal involvement downgraded a clinical CR in tumor. Other factors were also considered such the percentage of patients who underwent breast-conserving surgery (quadrantectomy/lumpectomy) instead of mastectomy. Patients who became inoperable, or who remained inoperable at 4 months, were counted as treatment failures.
# Twenty-one RNA samples were extracted from 14-gauge needle core biopsies collected before initiation of neoadjuvant endocrine therapy from patients enrolled in a randomized Phase III trial of letrozole (FEMARA™, Novartis Pharma, Basal Switzerland) versus tamoxifen for postmenopausal women with primary invasive breast cancer ineligible for breast conserving surgery. RNA was extracted from an additional 30 primary breast adenocarcinomas collected in Sweden, one additional ESR1+breast tumor surgical biopsy, two HUVEC samples, two samples from glioblastoma cell line U373-MG and one MCF7 sample using Trizol (Life Technologies, Gaithersburg, Md.). The clinical samples were collected after informed consent had been obtained according to protocols approved by local ethics committees. RNA was purchased for two samples, an infiltrating Stage III duct carcinoma (Ambion, Austin, Tex.) and a pool of two normal breast tissues (Clontech, Palo Alto, Calif.). The total number of samples prepared was 59 including 53 breast cancer biopsies and one pooled normal breast sample. Total RNA was purified using QIAGEN RNEASY™ columns (Qiagen, Valencia, Calif.), processed and hybridized to the HUGENE™ FL 6800 Array (Affymetrix, Santa Clara, Calif.), as described by Lockhart et al., Nat. Biotechnol., Vol. 14, pp. 1675-1680 (1996).
# In another aspect of the invention 136 breast biopsies from 53 patients were obtained. RNA was extracted from 116 biopsies. Expression profiles were generated for 43 biopsies from 35 patients. Predictive markers of endocrine therapy responsiveness in breast tumors were identified. The breakdown of the profiled biopsies from the pre-letrozole (FEMARA™) treatments and the patient's clinical outcome was as follows: four patients with CR, nine patients with PR, four patients with NC and four patients with PD.
# For the group treated with tamoxifen there were no patients in the CR category, 10 patients with PR, seven patients with NC and four patients with PD.
# Patients with CR or PR were classified as “Responders” and those with NC or PD were classified as “Non-responders”. The expression of 8,000 genes was compared between these two groups in the pre-treatment biopsies from patients given Letrozole (FEMARA™). Numerical values (AvDiff) represent the expression level for that gene in a particular sample. For computational reasons the average of the AvDiff values was calculated for each gene on the array for all of the responders. These averages were then compared to each gene for each individual sample in the Non-responders group. […]
# [2] = test system: advanced ER-positive breast cancer; details: patients with advanced ER-positive breast cancer; Clark et al. 1988; cited from earlier work
Compound,effect on TFF1 mRNA levels (TFF1),patients with Complete Response (CR) [1],patients with No Change (NC) [1],patients with Partial Response (PR) [1],patients with Progressive Disease (PD) [1],response rate [2],effect on estradiol induction of TFF1 (TFF1)
C[C@]12CCC(=O)C[C@@H]1CC[C@@H]1[C@@H]2CC[C@]2(C)[C@@H](O)CC[C@@H]12 [dihydrotestosterone],not,,,,,,
N#Cc1ccc(C(c2ccc(C#N)cc2)n2cncn2)cc1 [letrozole],,four,four,nine,four,,
CC(=O)[C@H]1CC[C@H]2[C@@H]3CCC4=CC(=O)CC[C@]4(C)[C@H]3CC[C@]12C [progesterone],not,,,,,,
CC/C(=C(\c1ccccc1)c1ccc(OCCN(C)C)cc1)c1ccccc1 [tamoxifen],,no,seven,10 patients,four,around 50%,inhibited
